Test results reported in patent publication US20040014676A1, “SRC kinase inhibitors useful for treating osteoporosis” (priority 2001, published 2004).

What follows are compounds tested against T1, Src kinase (Homo sapiens, UniProt P12931) (assay: Phosphorylation assay of Src kinase inhibitors (radiometric, 96 well filter plate)). Conditions: duplicates, tested in the range of 400-0.098 µM; 10 µM peptide substrate (FIYGAFKKKKNH2), 5 µM unlabeled ATP, room temperature 30 min; read-out: IC50.
T1 construct: purchased Upstate Bioteolnology (sic; Upstate Biotechnology); later HMR stock 27597-019E1 #14-117
Format: biochemical
Protocol: The present invention provides novel compounds of Formulae I through XVIII discussed above. The following compounds which fall within Formulae I through XVIII are characterized by structure, IUPAC name and activity using phosphorylation assay for protein tyrosine Src kinase.
Phosphorylation Assay of Src Kinase Inhibitors
The activity of Src kinase was measured in a 96 well plate phosphorylation assay where the transfer of gamma phosphate from ATP to peptide substrate was measured radiometrically. […] Ki values were determined experimentally for some of the inhibitors. The phosphocellulose filter plates (Millipore catalog #MAPH NOB) were prewet prior to the phosphorylation assay by addition of 100 1 per well of 30 mM MES buffer+0.4 mg/ml BSA. After a 20-minute incubation, the buffer was removed completely via a Millipore vacuum manifold. The phosphorylation assay was then set up in the filter plates in a total volume per well of 60 1. The 60 1 consisted of compound (see concentration ranges above), a 1:100 dilution of Src kinase (originally Upstate Bioteolnology, #14-117; later HMR stock 27597-019E1) or assay buffer alone (for no enzyme control wells), 10 M peptide substrate (FIYGAFKKKKNH2), 5 M unlabeled ATP and a 1:500 dilution of P-ATP (New England Nuclear, catalog #NEG-602H, 2000 Ci/mmol). The reaction was mixed and incubated at room temperature for 30 min. The kinase reactions were stopped by addition of 150 mM H3PO4 and incubated for 10 minutes. The filter plate wells were filtered and washed seven times with 200 1 per well of 150 mM H3PO4. Finally, the filter plate was placed into a Packard plate adapter (Packard catalog #600517B), 35 1 of Microscint-20 (Packard catalog #6013621) was added to each well, the plate was sealed (TopSeal A sealers; Packard catalog #6005185) and counted on a Packard TopCount.
“3-[4-[[2(S)-AMINO-3-(4-HYDROXY- PHENYL)-1-OXOPROPYL]AMINO]- ETHOXY]-2-[N-ACETAMIDO]- NAPHTHALENECARBOXAMIDE [Example 23]” gave an IC50 of 3.4 µM. Compound “3-[[4-[[1-OXO-2(S)-AMINO-3-(4- HYDROXYPHENYL)]PROPYL]AMINO]BUTOXY]-7-METHOXY- NAPHTHALENE-2-[N-[[(3-HYDROXY- PROPYLAMINO)-CARBONYL]- METHYL]]CARBOXAMIDE [Example 118]” has an IC50 of 47 µM. With “3-[[[2(S)-AMINO-3-(4-HYDROXY- PHENYL)-1-OXO]PROPYL]AMINO]- BUTOXY]NAPHTHALENE-2-[N- [(AMIDO)[2-(INDOL-3-YL)METHYL]- METHYL]CARBOXAMIDE [Example 29]” the IC50 was 60 µM. Work on “3-[[[4-[[[1-OXO-2(S)-AMINO-3- HYDROXYPHENYL)]PROPYL]AMINO]- BUTYL]CARBONYL]AMINO]- NAPHTHALENE-2-ACETAMIDO)- CARBOXAMIDE [Example 91]” yielded an IC50 of 209 µM. `Cc1nc(-c2ccc(CC(N)C(=O)NCCCCOc3cc4ccccc4cc3C(=O)NCC(N)=O)cc2)no1` (stereo in doubt) [Compound 135, (2S)-2-amino-N-(4-{3-[N-(carbamoylmethyl)carbamoyl](2-naphtyloxy)}butyl)-3-[4-(5-methyl(1,2,4-oxadizol-3-yl))phenyl]propanamide] showed an IC50 of 29 µM. `NC(=O)CNC(=O)c1cc(-c2ccccc2)ccc1OCCCCNC(=O)C(N)Cc1ccc(O)cc1` (stereo in doubt) [Compound 144, (2S)-2-amino-N-(4-{2-[N-(carbamoylmethyl)carbamoyl]-4-phenylphenoxy}butyl)-3-(4-hydroxyphenyl)propanamide] gave an IC50 of 30 µM. Work on `NC(=O)CNC(=O)c1cc2ccccc2cc1OCCCCN1CCNC(Cc2ccccc2)C1=O` (stereo in doubt) [Example 28, 3-[4-[(2-OXO-3(S)-BENZYL)-PIPERAZIN- 1-YL]BUTOXY]-NAPHTHALENE-2-(N- ACETAMIDO)CARBOXAMIDE] yielded an IC50 of 27 µM. Compound `NC(=O)CNC(=O)c1cc2ccccc2cc1OCCCCN1CCNC(Cc2ccccc2)C1=O` (stereo in doubt) [Example 30, 3-[4-[(2-OXO-3-(R)-BENZYL)- PIPERAZIN-1-YL]BUTOXY]- NAPHTHALENE-2-(N- ACETAMIDO)CARBOXAMIDE] has an IC50 of 8.8 µM. `C[C@@H](NC(=O)c1cc2ccccc2cc1OCCCCNC(=O)[C@H](N)Cc1ccc(O)cc1)C(N)=O` (stereo in doubt) [Example 122, 2-[[4-[[1-OXO-2-AMINO-3-(4-HYDROXY- PHENYL)]PROPYL]AMINO] BUTOXY]- NAPHTHALENE-3-[N-[1(S)-METHYL-2- OXO-2-AMINO)ETHYL]ACETAMIDO]- CARBOXAMIDE] showed an IC50 of 12 µM. In the case of `NC(=O)CNC(=O)c1cc2ccccc2cc1NCCCCNC(=O)[C@H](N)Cc1ccc(O)cc1` (stereo in doubt) [Example 123], the IC50 is reported as 25 µM. With `CNC(=O)C(Cc1ccc(-c2noc(C)n2)cc1)C(=O)NCCCCOc1cc2ccccc2cc1C(=O)NCC(N)=O` (centres unmarked) [Compound 134, N-(4-{3-[N-(carbamoylmethyl)carbamoyl](2-naphthyloxy)}butyl)-N′-methyl-2-{[4-(5-methyl(1,2,4-oxadiazol-3-yl))phenyl]methyl}propane-1,3-diamide] the IC50 was 76 µM. `NC(=O)CNC(=O)c1c(Cl)c(Cl)cc(Cl)c1OCCCCNC(=O)[C@@H](N)Cc1ccc(O)cc1` [Compound 136, (2S)-2-amino-N-(4-{2-[N-(carbamoylmethyl)carbamoyl]-3,4,6-trichlorophenoxy)butyl)-3-(4-hydroxyphenyl)propanamide] showed an IC50 of 200 µM. Work on `NC(=O)CC(=O)Nc1cc2ccccc2cc1OCCCCNC(=O)[C@@H](N)Cc1ccc(O)cc1` [Compound 151, (2S)-2-amino-N-{4-[3-(2-carbamoylacetylamino)(2-naphthyloxy)]butyl}-3-(4-hydroxyphenyl)propanamide] yielded an IC50 of 5 µM. Compound `NC(=O)CC(=O)Nc1cc2ccccc2cc1OCCCCNC(=O)[C@@H](N)Cc1csc2ccccc12` [Compound 152, (2S)-2-amino-3-benzo[b]thiophen-3-yl-N-{4-[3-(2-carbamoylacetylamino)(2-naphthyloxy)]butyl}propanamide] has an IC50 of 1 µM. For `NC(=O)CNC(=O)c1cc2ccccc2cc1OCCCCNC(=O)[C@@H](N)CC1=CS(=O)(=O)c2ccccc21` [Compound 155, (2S)-2-amino-3-(1,1-dioxobenzo[b]thiophen-3-yl)-N-(4-{3-[N-(carbamoylmethyl)carbamoyl](2-naphthyloxy)}butyl)propanamide], the IC50 was 5 µM. `NC(=O)Cc1nc(-c2cc3ccccc3cc2OCCCCNC(=O)[C@@H](N)Cc2csc3ccccc23)no1` [Compound 156, (2S)-2-amino-3-benzo[b]thiophen-3-yl-N-(4-{3-[5-(carbamoylmethyl)(1,2,4-oxadiazol-3-yl)](2-naphthyloxy)}butyl)propanamide] showed an IC50 of 20 µM. With `N[C@@H](Cc1ccc(O)cc1)C(=O)NCCCCOc1c(O)cc(C(=O)NCC(=O)CCCO)cc1O` [Example 3, ALPHA(S)-AMINO-N-[4-[2,6-DI- HYDROXY-4-[[(5-HYDROXY-2-OXO- PENTYL)AMINO]CARBONYL]- PHENOXY] BUTYL]-4- HYDROXYBENZENEPROPANAMIDE] the IC50 was ≥ 500 µM. For `NC(=O)CNC(=O)c1cc2ccccc2cc1OCCCCNC(=O)[C@@H](N)Cc1ccc(O)cc1` [Example 5, 3-[4-[[2(S)-AMINO-3-(4-HYDROXY- PHENYL)-1-OXOPROPYL]AMINO]- BUTOXY]-2-[N-ACETAMIDO]- NAPHTHALENECARBOXAMIDE], the IC50 was 0.47 µM. `NC(=O)c1cc2ccccc2cc1OCCCCNC(=O)[C@@H](N)Cc1ccc(O)cc1` [Example 6, 3-[4-[[2(S)-AMINO-3-(4-HYDROXY- PHENYL)-1-OXOPROPYL]AMINO]- BUTOXY]-NAPHTHALENE-2- CARBOXAMIDE] gave an IC50 of 47 µM. In the case of `N[C@@H](Cc1ccc(O)cc1)C(=O)NCCCOc1cc2ccccc2cc1C(=O)NCC(=O)NCCCO` [Example 7, 3-[3-[[2(S)-AMINO-3-(4-HYDROXY- PHENYL)-1-OXOPROPYL]AMINO]- PROPOXY]-N-[2-[(3-HYDROXY- PROPYL)AMINO]-2-OXOETHYL]-2- NAPHTHALENECARBOXAMIDE], the IC50 is reported as 45 µM. Compound `NCCCCC(NC(=O)c1cc2ccccc2cc1OCCCCNC(=O)[C@@H](N)Cc1ccc(O)cc1)C(N)=O` (stereo partly drawn) [Example 8, 3-[4-[[2(S)-AMINO-3-(4-HYDROXY- PHENYL)-1-OXOPROPYL]AMINO]- BUTOXY]-NAPHTHALENE-2-[N-[[(4- AMINOBUTYL)(AMIDO)]METHYL]- ACETAMIDO]CARBOXAMIDE] has an IC50 of 348 µM. `CC(NC(=O)c1cc2ccccc2cc1OCCCCNC(=O)[C@@H](N)Cc1ccc(O)cc1)C(N)=O` (stereo partly drawn) [Example 9, 3-[4-[[2(S)-AMINO-3-(4-HYDROXY- PHENYL)-1-OXOPROPYL]AMINO]- BUTOXY]-NAPHTHALENE-2-N-[(1- AMIDO)ETHYL]CARBOXAMIDE] showed an IC50 of 25 µM. `NC(=O)C(Cc1ccccc1)NC(=O)c1cc2ccccc2cc1OCCCCNC(=O)[C@@H](N)Cc1ccc(O)cc1` (stereo partly drawn) [Example 10, 3-[4-[[2(S)-AMINO-3-(4-HYDROXY- PHENYL)-1-OXOPROPYL]AMINO]- BUTOXY]-NAPHTHALENE-2-[N- [(AMIDO)(BENZYL)METHYL]]- CARBOXAMIDE] was tested, and the IC50 was ≥ 500 µM. `N=C(N)NCCCC(NC(=O)c1cc2ccccc2cc1OCCCCNC(=O)[C@@H](N)Cc1ccc(O)cc1)C(N)=O` (stereo partly drawn) [Example 11, 3-[4-[[2(S)-AMINO-3-(4-HYDROXY- PHENYL)-1-OXOPROPYL]AMINO]- BUTOXY]-NAPHTHALENE-2-[N- [[AMIDO][(3-AMINOIMINOMETHYL)- PROPYLAMINO]METHYL]]- CARBOXAMIDE] showed an IC50 of 113 µM. `NC(=O)C(CCC(=O)O)NC(=O)c1cc2ccccc2cc1OCCCCNC(=O)[C@@H](N)Cc1ccc(O)cc1` (stereo partly drawn) [Example 12, 3-[4-[[2(S)-AMINO-3-(4-HYDROXY- PHENYL)-1-OXOPROPYL]AMINO]- BUTOXY]-NAPHTHALENE-2-[N- [(AMIDO)(2-CARBOXYEHTYL)- METHYL]]CARBOXAMIDE] gave an IC50 of 308 µM. With `NC(=O)CNC(=O)c1cc2ccccc2cc1OCCCCNC(=O)[C@@H](N)Cc1ccc2ccccc2c1` [Example 13, 3-[4-[[2(S)-AMINO-3-(NAPTHYL-2-YL)-1- OXOPROPYL]AMINO]BUTOXY]- NAPHTHALENE-2-[N-(2- AMIDOMETHYL)]CARBOXAMIDE] the IC50 was 0.45 µM. `NC(=O)CNC(=O)c1cc2ccccc2cc1OCCCCNC(=O)[C@@H](N)Cc1ccccc1` [Example 14, 3-[4-[[2(S)-AMINO-3-(PHENYL)-1- OXOPROPYL]AMINO]BUTOXY]- NAPHTHALENE-2-[N-(2- AMIDOMETHYL)]CARBOXAMIDE] showed an IC50 of 0.98 µM. `CC(C)C[C@H](N)C(=O)NCCCCOc1cc2ccccc2cc1C(=O)NCC(N)=O` [Example 15, 3-[4-[[2(S)-AMINO-3-(ISOPROPYL)-1- OXOPROPYL]AMINO]BUTOXY]- NAPHTHALENE-2-[N-(2- AMIDOMETHYL)]CARBOXAMIDE] gave an IC50 of 4.8 µM. `NC(=O)CNC(=O)c1cc2ccccc2cc1OCCCCNC(=O)[C@H](Cc1ccc(O)cc1)NC(=O)c1ccccc1` [Example 17, 3-[4-[[2(S)-(N-BENZOYLAMINO)-3-(4- HYDROXYPHENYL)-1-OXOPROPYL]- AMINO]BUTOXY]-NAPHTHALENE-2- [N-(2-AMIDOMETHYL)]CARBOXAMIDE] showed an IC50 of 23 µM.
